# Patent publication US20230096766A1, “AMINO ACID HAVING FUNCTIONAL GROUP CAPABLE OF INTERMOLECULAR HYDROGEN BONDING, PEPTIDE COMPOUND CONTAINING SAME AND METHOD FOR PRODUCTION THEREOF” (Chugai Seiyaku Kabushiki Kaisha, priority 2018, published 2023)
# *1 amine or outer side, *2 acyl side, *3 side chain or, on linkers, in order; H or OH if unused. Where a SMILES comes first, the peptide text is derived from it. Bridges are numbered along the chain shown (N, C = ends). [ ]: non-standard residue; d: D form. The star is where a group is joined. ξ: configuration not given here. hPhe(3-OMe,4-CONHMe) = CNC(=O)c1ccc(CC[C@H](N)C(=O)O)cc1OC; Phe(3-OMe,4-CONHMe) = CNC(=O)c1ccc(C[C@H](N)C(=O)O)cc1OC; NMeAbu(4-morpholino) = CN[C@@H](CCN1CCOCC1)C(=O)O; Phe(4-COOH) = N[C@@H](Cc1ccc(C(=O)O)cc1)C(=O)O; X11 = CNC(=O)c1ccc(CCN(CC(=O)[*:2])[*:1])cc1OC; NMePhe(3-Cl) = CN[C@@H](Cc1cccc(Cl)c1)C(=O)O; ξGln(SO2Me) = CS(=O)(=O)NC(=O)CCC(N)C(=O)O; NMehPhe = CN[C@@H](CCc1ccccc1)C(=O)O; X7 = O=C(C[C@H](COCCO)N[*:1])[*:2]; NMeF = CN[C@@H](Cc1ccccc1)C(=O)O; NMeGABA = CN(CCCC(=O)[*:2])[*:1]; NMeI = CC[C@H](C)[C@H](NC)C(=O)O; Butyl(3-Me,3-OH) = CC(C)(O)CC*; CH2CH(OH)CF3 = OC(C*)C(F)(F)F; NMeL = CN[C@@H](CC(C)C)C(=O)O; NMeV = CN[C@H](C(=O)O)C(C)C; NMeAbu = CC[C@H](NC)C(=O)O; NMeA = CN[C@@H](C)C(=O)O; Piperidide = C1CCN(*)CC1; CH2CMe2OH = CC(C)(O)C*; NBuGly = CCCCNCC(=O)O; NPrGly = CCCNCC(=O)O; Propyl(3-OH) = OCCC*; N(OH)Me = CN(O)*; Sar = CNCC(=O)O; tBu = CC(C)(C)*
# Test: in vitro
# Conditions: human, Caco-2, Caco-2
row,Structure (SMILES),Papp [×10⁻⁶ cm/s]
1,CCCCN1CC(=O)N(C)[C@@H](CC(C)C)C(=O)N[C@@H](COC(C)(C)C)C(=O)N(C)[C@@H](Cc2ccccc2)C(=O)N(C)[C@@H](C(C)C)C(=O)N[C@H](C(=O)N2CCCCC2)CC(=O)N[C@H](C(C)C)C(=O)N(C)[C@@H](Cc2ccccc2)C(=O)NC(CCC(=O)NS(C)(=O)=O)C(=O)N(C)[C@@H](CC(C)C)C(=O)N[C@@H](CC(C)C)C1=O (stereo partly drawn) [pd67] ([dV][NMeF][ξGln(SO2Me)][NMeL]L[NBuGly][NMeL]S(tBu)[NMeF][NMeV]D-Piperidide; lactam N-11),0.06
2,CCCCN1CC(=O)N(C)[C@@H](CC(C)C)C(=O)N[C@H](C(=O)N2CCCCC2)CC(=O)N(C)[C@@H](CC(C)C)C(=O)N[C@@H](CC(C)C)C(=O)N(C)[C@@H](CC)C(=O)N(C)[C@@H](Cc2ccccc2)C(=O)NC(CCC(=O)NS(C)(=O)=O)C(=O)N(C)[C@@H](Cc2cccc(Cl)c2)C(=O)N(C)[C@@H](CC(C)C)C(=O)N[C@@H]([C@@H](C)O)C1=O (stereo partly drawn) [pd64] ([NMeL]L[NMeAbu][NMeF][ξGln(SO2Me)][NMePhe(3-Cl)][NMeL]T[NBuGly][NMeL]D-Piperidide; lactam N-11),0.15
3,CCCCN1CC(=O)N(C)[C@@H](CCN2CCOCC2)C(=O)N[C@H](C(=O)N2CCCCC2)CC(=O)N(C)[C@@H](C)C(=O)N[C@@H](CC(C)C)C(=O)N(C)[C@@H](CC(C)C)C(=O)N(C)[C@@H](Cc2ccccc2)C(=O)N[C@@H](CC(C)C)C(=O)N(C)[C@@H](Cc2ccccc2)C(=O)N(C)[C@@H](CC(C)C)C(=O)N[C@@H]([C@@H](C)O)C1=O [pd454] ([NMeA]L[NMeL][NMeF]L[NMeF][NMeL]T[NBuGly][NMeAbu(4-morpholino)]D-Piperidide; lactam N-11),1.2

# Same assay, conditions: human, Caco-2, Caco-2 (cm/sec)
row,Structure (SMILES),Papp [×10⁻⁶ cm/s]
1,CC[C@H](C)[C@@H]1NC(=O)[C@H](CC(C)C)N(C)C(=O)CCCN(C)C(=O)C[C@@H](C(=O)N2CCCCC2)NC(=O)[C@H](CC(C)C)N(C)C(=O)[C@H](CC(C)C)N(C)C(=O)[C@H]([C@@H](C)O)NC(=O)[C@H](CC(C)C)N(C)C(=O)C[C@H](COCCO)NC(=O)[C@H](CC(C)C)N(C)C(=O)[C@H](Cc2cccc(Cl)c2)N(C)C1=O [AP22] ([NMeGABA][NMeL]I[NMePhe(3-Cl)][NMeL][X7][NMeL]T[NMeL][NMeL]D-Piperidide; lactam N-11),0.23
2,CC[C@H]1C(=O)N(C)[C@@H](Cc2ccccc2)C(=O)N[C@@H](C)C(=O)N(C)[C@@H](CC(C)C)C(=O)N(C)[C@@H](CC(C)C)C(=O)N[C@@H]([C@@H](C)O)C(=O)N(CCc2ccc(C(=O)NC)c(OC)c2)CC(=O)N(C)[C@@H](CC(C)C)C(=O)N[C@H](C(=O)N2CCCCC2)CC(=O)N(C)[C@@H](C(C)C)C(=O)N[C@@H](CC(C)C)C(=O)N1C [AP217] ([NMeV]L[NMeAbu][NMeF]A[NMeL][NMeL]T[X11][NMeL]D-Piperidide; lactam N-11),1
3,CCCN1CC(=O)N(C)[C@@H](CC(C)C)C(=O)N[C@H](C(=O)N2CCCCC2)CC(=O)N(C)[C@@H](C)C(=O)N[C@@H](CC(C)C)C(=O)N(C)[C@@H](CC(C)C)C(=O)N(C)[C@@H](Cc2ccccc2)C(=O)N[C@@H](COCC(C)(C)O)C(=O)N(C)[C@@H](Cc2ccccc2)C(=O)N(C)[C@@H]([C@@H](C)CC)C(=O)N[C@@H]([C@@H](C)O)C1=O [AP06] ([NMeA]L[NMeL][NMeF]S(CH2CMe2OH)[NMeF][NMeI]T[NPrGly][NMeL]D-Piperidide; lactam N-11),0.033
4,CC[C@H](C)[C@@H]1NC(=O)[C@H](CC(C)C)N(C)C(=O)CCCN(C)C(=O)C[C@@H](C(=O)N2CCCCC2)NC(=O)[C@H](CC(C)C)N(C)C(=O)[C@H](CC(C)C)N(C)C(=O)[C@H]([C@@H](C)O)NC(=O)[C@H](CC(C)C)N(C)C(=O)[C@H](COCCCO)NC(=O)[C@H](Cc2cccc(Cl)c2)N(C)C(=O)[C@H](Cc2ccccc2)N(C)C1=O [AP92] ([NMeGABA][NMeL]I[NMeF][NMePhe(3-Cl)]S(Propyl(3-OH))[NMeL]T[NMeL][NMeL]D-Piperidide; lactam N-11),0.18
5,"CC(C)C[C@@H]1NC(=O)[C@H](C)N(C)C(=O)C[C@@H](C(=O)N2CCCCC2)NC(=O)[C@H](CC(C)C)N(C)C(=O)CN(C)C(=O)[C@H]([C@@H](C)O)NC(=O)[C@H](CC(C)C)N(C)C(=O)[C@H](CCc2ccccc2)N(C)C(=O)[C@H](COCCC(C)(C)O)NC(=O)[C@H](Cc2ccccc2)N(C)C(=O)[C@H](CC(C)C)N(C)C1=O [AP56] ([NMeA]L[NMeL][NMeF]S(Butyl(3-Me,3-OH))[NMehPhe][NMeL]T[Sar][NMeL]D-Piperidide; lactam N-11)",1.3
6,CC(C)C[C@@H]1NC(=O)[C@H](CC(C)C)N(C)C(=O)[C@H](C)N(C)C(=O)[C@@H](C(C)C)NC(=O)C[C@@H](C(=O)N2CCCCC2)NC(=O)[C@H]([C@@H](C)O)NC(=O)[C@H](C)N(C)C(=O)CN(C)C(=O)[C@H](CC(C)C)N(C)C(=O)[C@H](Cc2c[nH]c3ccccc23)NC(=O)[C@H](Cc2ccccc2)N(C)C1=O [pd100] ([dV][NMeA][NMeL]L[NMeF]W[NMeL][Sar][NMeA]TD-Piperidide; lactam N-11),0.11
7,CCCN1CC(=O)N(C)[C@@H](CC(C)C)C(=O)N[C@H](C(=O)N2CCCCC2)CC(=O)N(C)[C@@H](CC(C)C)C(=O)N[C@@H](Cc2ccccc2)C(=O)N(C)[C@@H](CC(C)C)C(=O)N(C)[C@@H](CC(C)C)C(=O)N[C@@H](COCCO)CC(=O)N(C)[C@@H](Cc2ccccc2)C(=O)N(C)[C@@H](CC(C)C)C(=O)N[C@@H]([C@@H](C)O)C1=O [AP24] ([NMeL]F[NMeL][NMeL][X7][NMeF][NMeL]T[NPrGly][NMeL]D-Piperidide; lactam N-11),0.42
8,"CC[C@H](C)[C@@H]1NC(=O)[C@H](CC(C)C)N(C)C(=O)CCCN(C)C(=O)C[C@@H](C(=O)N2CCCCC2)NC(=O)[C@H](CC(C)C)N(C)C(=O)[C@H](CC(C)C)N(C)C(=O)[C@H]([C@@H](C)O)NC(=O)[C@H](CC(C)C)N(C)C(=O)[C@H](Cc2ccc(C(=O)NC)c(OC)c2)NC(=O)[C@H](CC(C)C)N(C)C(=O)[C@H](Cc2ccccc2)N(C)C1=O [AP30] ([NMeGABA][NMeL]I[NMeF][NMeL][Phe(3-OMe,4-CONHMe)][NMeL]T[NMeL][NMeL]D-Piperidide; lactam N-11)",0.19
9,CC[C@H](C)[C@@H]1NC(=O)[C@H](CC(C)C)N(C)C(=O)CN(C)C(=O)C[C@@H](C(=O)N2CCCCC2)NC(=O)[C@H](CC(C)C)N(C)C(=O)[C@H](Cc2ccc(C(=O)N(C)O)cc2)NC(=O)[C@H](CC(C)C)N(C)C(=O)[C@H](Cc2cccc(Cl)c2)N(C)C(=O)CN(C)C(=O)[C@H]([C@@H](C)O)NC(=O)[C@H](CC(C)C)N(C)C1=O [AP255] ([Sar][NMeL]I[NMeL]T[Sar][NMePhe(3-Cl)][NMeL][Phe(4-COOH)](N(OH)Me)[NMeL]D-Piperidide; lactam N-11),0.05
10,"CNC(=O)c1ccc(CC[C@@H]2NC(=O)[C@H](CC(C)C)N(C)C(=O)CCCN(C)C(=O)C[C@@H](C(=O)N3CCCCC3)NC(=O)[C@H](CC(C)C)N(C)C(=O)[C@H](CC(C)C)N(C)C(=O)[C@H]([C@@H](C)O)NC(=O)[C@H](CC(C)C)N(C)C(=O)[C@H](COC(C)(C)C)NC(=O)[C@H](Cc3ccccc3)N(C)C(=O)[C@H](CC(C)C)N(C)C2=O)cc1OC [AP203] ([NMeGABA][NMeL][hPhe(3-OMe,4-CONHMe)][NMeL][NMeF]S(tBu)[NMeL]T[NMeL][NMeL]D-Piperidide; lactam N-11)",0.41
11,CCCCN1CC(=O)N(C)[C@@H](Cc2cccc(Cl)c2)C(=O)N(C)[C@@H](CC(C)C)C(=O)N[C@@H](COCCCO)C(=O)N(C)[C@@H](CC(C)C)C(=O)N[C@H](C(=O)N2CCCCC2)CC(=O)N(C)CC(=O)N(C)[C@@H](Cc2ccccc2)C(=O)N[C@@H]([C@@H](C)CC)C(=O)N(C)[C@@H](CC(C)C)C(=O)N[C@@H]([C@@H](C)O)C1=O [AP96] ([Sar][NMeF]I[NMeL]T[NBuGly][NMePhe(3-Cl)][NMeL]S(Propyl(3-OH))[NMeL]D-Piperidide; lactam N-11),0.17

# Same assay, conditions: human, Caco-2, Caco-2 (cm/sec) Papp
row,Structure (SMILES),Papp [×10⁻⁶ cm/s]
1,CC(C)C[C@H]1C(=O)N[C@@H](COC(C)(C)C)C(=O)N[C@@H]([C@@H](C)O)C(=O)N(C)[C@@H](Cc2ccccc2)C(=O)N[C@H](C(=O)N2CCCCC2)CC(=O)N[C@@H](C)C(=O)N(C)[C@@H](Cc2ccccc2)C(=O)N(C)[C@@H](C)C(=O)N(C)[C@@H](Cc2ccccc2)C(=O)N(C)[C@@H](CC(C)C)C(=O)N[C@@H](Cc2ccccc2)C(=O)N1C [pd237] (A[NMeF][NMeA][NMeF][NMeL]F[NMeL]S(tBu)T[NMeF]D-Piperidide; lactam N-11),0.089

# Same assay, conditions: human, Caco-2, Caco-2 (membrane permeability)
row,Structure (SMILES),Papp [×10⁻⁶ cm/s]
1,CC[C@H]1C(=O)N(C)[C@@H](Cc2ccccc2)C(=O)N[C@@H](CC(C)C)C(=O)N(C)[C@@H](Cc2ccccc2)C(=O)N(C)[C@@H](C(C)C)C(=O)N[C@@H](COCC(O)C(F)(F)F)C(=O)N(C)CC(=O)N(C)[C@@H](CC(C)C)C(=O)N[C@H](C(=O)N2CCCCC2)CC(=O)N(C)[C@@H](C)C(=O)N[C@@H](CC(C)C)C(=O)N1C (stereo partly drawn) [Compound C14] ([NMeA]L[NMeAbu][NMeF]L[NMeF][NMeV]S(CH2CH(OH)CF3)[Sar][NMeL]D-Piperidide; lactam N-11),2
2,CC[C@H]1C(=O)N[C@@H](COC(C)(C)C)C(=O)N(C)[C@@H](Cc2ccccc2)C(=O)N(C)[C@@H](CC(C)C)C(=O)N[C@H](C(=O)N2CCCCC2)CC(=O)N[C@H](CC(C)C)C(=O)N(C)[C@@H](Cc2ccccc2)C(=O)N[C@@H](CC(C)C)C(=O)N(C)[C@@H](CC)C(=O)N[C@@H](COCC(O)C(F)(F)F)C(=O)N(C)CC(=O)N1C (stereo partly drawn) [Compound C10] ([dL][NMeF]L[NMeAbu]S(CH2CH(OH)CF3)[Sar][NMeAbu]S(tBu)[NMeF][NMeL]D-Piperidide; lactam N-11),0.95
3,CC[C@H](C)[C@@H]1NC(=O)[C@H](CC(C)C)N(C)C(=O)[C@H](COCC(O)C(F)(F)F)NC(=O)[C@H](Cc2ccccc2)N(C)C(=O)CN(C)C(=O)C[C@@H](C(=O)N2CCCCC2)NC(=O)[C@H](CC(C)C)N(C)C(=O)[C@H](COC(C)(C)C)NC(=O)[C@H](CC(C)C)N(C)C(=O)[C@H](Cc2ccccc2)N(C)C(=O)CN(C)C1=O (stereo partly drawn) [Compound C17] ([Sar][NMeF]S(CH2CH(OH)CF3)[NMeL]I[Sar][NMeF][NMeL]S(tBu)[NMeL]D-Piperidide; lactam N-11),4.1
